Data from ChEMBL document CHEMBL3351312, “Design of Fluorine-Containing 3,4-Diarylfuran-2(5H)-ones as Selective COX-1 Inhibitors” (ACS Med Chem Lett, 2014).

Assays:
[1] = molecular target: T1, Prostaglandin G/H synthase 1 (Ovis aries, UniProt P05979); experiment: Inhibition of ovine COX-1 assessed as inhibition of [14C]arachidonic acid to radiolabeled prostaglandins preincubated for 20 mins by TLC-based assay
T1 sequence (P05979 whole entry): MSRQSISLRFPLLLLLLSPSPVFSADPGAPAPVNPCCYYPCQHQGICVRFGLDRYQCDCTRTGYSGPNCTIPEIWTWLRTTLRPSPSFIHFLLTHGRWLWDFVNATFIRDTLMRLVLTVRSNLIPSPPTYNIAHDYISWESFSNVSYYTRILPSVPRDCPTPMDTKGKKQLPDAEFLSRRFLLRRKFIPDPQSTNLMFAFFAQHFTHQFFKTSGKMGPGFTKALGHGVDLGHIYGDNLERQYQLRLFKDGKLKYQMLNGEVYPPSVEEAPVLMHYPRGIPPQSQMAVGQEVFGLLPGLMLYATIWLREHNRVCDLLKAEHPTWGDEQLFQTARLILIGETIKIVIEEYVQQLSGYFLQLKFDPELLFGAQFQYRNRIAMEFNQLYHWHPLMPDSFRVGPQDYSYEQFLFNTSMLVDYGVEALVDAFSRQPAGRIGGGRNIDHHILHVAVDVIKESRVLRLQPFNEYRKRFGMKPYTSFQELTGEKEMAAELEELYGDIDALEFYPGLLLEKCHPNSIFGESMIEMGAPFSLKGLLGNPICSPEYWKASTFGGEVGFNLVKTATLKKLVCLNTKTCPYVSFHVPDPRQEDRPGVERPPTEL

[2] = molecular target: T2, Prostaglandin G/H synthase 2 (Mus musculus, UniProt Q05769); experiment: Inhibition of mouse COX-2 assessed as inhibition of [14C]arachidonic acid to radiolabeled prostaglandins preincubated for 20 mins by TLC-based assay
T2 sequence (Q05769 whole entry): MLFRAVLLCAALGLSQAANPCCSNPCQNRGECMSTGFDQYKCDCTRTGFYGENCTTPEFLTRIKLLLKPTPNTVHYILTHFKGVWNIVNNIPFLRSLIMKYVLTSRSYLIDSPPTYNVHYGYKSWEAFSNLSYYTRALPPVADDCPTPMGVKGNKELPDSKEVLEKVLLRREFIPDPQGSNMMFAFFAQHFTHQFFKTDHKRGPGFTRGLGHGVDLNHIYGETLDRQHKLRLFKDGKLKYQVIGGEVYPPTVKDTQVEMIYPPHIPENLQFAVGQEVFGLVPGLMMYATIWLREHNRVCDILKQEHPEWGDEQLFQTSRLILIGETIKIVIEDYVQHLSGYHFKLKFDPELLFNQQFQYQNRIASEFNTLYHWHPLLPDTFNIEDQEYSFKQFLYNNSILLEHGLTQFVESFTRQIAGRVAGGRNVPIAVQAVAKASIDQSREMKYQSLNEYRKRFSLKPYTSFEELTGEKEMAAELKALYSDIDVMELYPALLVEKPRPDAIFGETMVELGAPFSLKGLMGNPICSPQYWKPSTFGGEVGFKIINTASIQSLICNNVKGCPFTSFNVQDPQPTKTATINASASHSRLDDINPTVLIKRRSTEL

[3] = molecular target: T3, Prostaglandin G/H synthase 2 (Homo sapiens, UniProt P35354); experiment: Inhibition of COX-2 in human 1483 cells by cell-based assay
T3 sequence (P35354 whole entry): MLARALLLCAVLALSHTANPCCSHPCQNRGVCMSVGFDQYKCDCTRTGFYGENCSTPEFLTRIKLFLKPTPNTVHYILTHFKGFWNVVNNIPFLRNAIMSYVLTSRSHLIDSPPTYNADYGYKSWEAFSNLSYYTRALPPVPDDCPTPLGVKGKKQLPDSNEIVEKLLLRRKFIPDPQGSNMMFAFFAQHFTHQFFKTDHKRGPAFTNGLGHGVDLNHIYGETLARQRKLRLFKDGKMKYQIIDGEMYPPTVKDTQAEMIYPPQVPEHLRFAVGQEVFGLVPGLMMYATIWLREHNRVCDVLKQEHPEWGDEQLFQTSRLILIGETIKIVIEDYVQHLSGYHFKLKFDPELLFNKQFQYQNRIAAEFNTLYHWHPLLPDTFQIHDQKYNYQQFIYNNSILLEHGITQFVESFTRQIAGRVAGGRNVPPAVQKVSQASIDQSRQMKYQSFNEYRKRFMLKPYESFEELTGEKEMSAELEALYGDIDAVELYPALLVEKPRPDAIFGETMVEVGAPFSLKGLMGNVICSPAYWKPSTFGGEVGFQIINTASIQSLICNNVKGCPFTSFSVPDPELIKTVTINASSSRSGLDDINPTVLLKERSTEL

[4] = molecular target: Prostaglandin G/H synthase 1 (Homo sapiens, UniProt P23219); experiment: Inhibition of COX-1 in human OVCAR3 cells by cell-based assay; design: species or system OVCAR-3
[5] = molecular target: T4, Prostaglandin G/H synthase 2 (Mus musculus) (UniProt Q05769); experiment: Inhibition of mouse COX-2 assessed as inhibition of [14C]arachidonic acid to radiolabeled prostaglandins measured as residual activity preincubated for 20 mins by TLC-based assay
T4 sequence (whole entry): T2 sequence (Q05769 whole entry)

Prostaglandin G/H synthase 1 (Homo sapiens, UniProt P23219), sequence (P23219 whole entry): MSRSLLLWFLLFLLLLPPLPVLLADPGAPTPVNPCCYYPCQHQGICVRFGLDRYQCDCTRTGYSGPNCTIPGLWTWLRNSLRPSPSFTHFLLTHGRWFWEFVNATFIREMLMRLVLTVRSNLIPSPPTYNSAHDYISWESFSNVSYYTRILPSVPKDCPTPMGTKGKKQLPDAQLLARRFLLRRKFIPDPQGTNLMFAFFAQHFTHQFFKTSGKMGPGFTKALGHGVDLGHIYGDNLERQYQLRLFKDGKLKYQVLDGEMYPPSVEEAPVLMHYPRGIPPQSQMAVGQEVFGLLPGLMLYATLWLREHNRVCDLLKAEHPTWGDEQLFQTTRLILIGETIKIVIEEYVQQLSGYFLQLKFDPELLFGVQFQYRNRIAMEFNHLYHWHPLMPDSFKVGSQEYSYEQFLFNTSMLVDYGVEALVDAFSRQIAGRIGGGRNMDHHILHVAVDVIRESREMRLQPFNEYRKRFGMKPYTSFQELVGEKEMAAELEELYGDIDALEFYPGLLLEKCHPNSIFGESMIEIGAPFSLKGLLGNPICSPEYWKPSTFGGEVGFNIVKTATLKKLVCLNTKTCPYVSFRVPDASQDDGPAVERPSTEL

Row | Compound | IC50 [1] | IC50 [2] | IC50 [3] | IC50 [4] | Activity [5]
1 | O=C1OCC(c2ccccc2F)=C1c1ccc(CO)cc1 | > 25 µM | > 25 µM |  |  | 
2 | Cc1ccc(C2=C(c3ccc(F)cc3)C(=O)OC2)cc1 | 0.95 µM | > 25 µM | > 5 µM | 0.78 µM | 
3 | Cc1ccc(C2=C(c3ccnc(Cl)c3)C(=O)OC2)cc1 | 5 µM | > 25 µM |  |  | 
4 | Cc1ccc(C2=C(c3cccc(F)c3)C(=O)OC2)cc1 | > 25 µM | > 25 µM |  |  | 
5 | Cc1ccc(C2=C(c3ccccc3F)COC2=O)cc1 | > 25 µM | > 25 µM |  |  | 
6 | O=C1OCC(c2ccc(Cl)cc2)=C1c1ccnc(F)c1 | 15.7 µM | > 25 µM |  |  | 
7 | N#Cc1ccc(C2=C(c3ccnc(Cl)c3)C(=O)OC2)cc1 | 3 µM | > 25 µM |  |  | 
8 | COc1ccc(C2=C(c3cccc(Cl)c3F)C(=O)OC2)cc1 | 0.3 µM | > 25 µM |  |  | > 50%
9 | COc1ccc(C2=C(c3cccc(C(F)(F)F)c3)C(=O)OC2)cc1 | 8.8 µM | > 25 µM |  |  | 
10 | COc1ccc(C2=C(c3ccnc(F)c3)C(=O)OC2)cc1 | 4.6 µM | > 25 µM |  |  | 
11 | Cc1ccc(C2=C(c3ccccc3F)C(=O)OC2)cc1 | 1 µM | > 25 µM |  |  | 
12 | O=C1OCC(c2ccc(F)cc2)=C1c1ccc(O)cc1 | > 25 µM | > 25 µM |  |  | 
13 | O=C1OCC(c2ccc(O)cc2)=C1c1cccc(F)c1 | 1.75 µM | > 25 µM |  |  | 
14 | COc1ccc(C2=C(c3ccc(C(F)(F)F)cc3)C(=O)OC2)cc1 | 1 µM | > 25 µM |  |  | 
15 | Cc1ccc(C2=C(c3ccc(F)cc3)COC2=O)cc1 | > 25 µM | > 25 µM |  |  | 
16 | O=C1OCC(c2ccc(F)cc2)=C1c1ccccc1 | > 25 µM | > 25 µM |  |  | 
17 | N#Cc1ccc(C2=C(c3cccc(F)c3)C(=O)OC2)cc1 | 0.47 µM | > 25 µM |  |  | 
18 | O=C1OCC(c2ccccc2)=C1c1ccccc1F | > 25 µM | > 25 µM |  |  | 
19 | COc1ccc(C2=C(c3cccc(F)c3)C(=O)OC2)cc1 | 0.36 µM | > 25 µM |  |  | > 50%
20 | O=C1OCC(c2ccccc2)=C1c1ccccc1 | 5.9 µM | > 25 µM |  |  | 
21 | O=C1OCC(c2ccccc2F)=C1c1ccc(Br)cc1 | > 25 µM | > 25 µM |  |  | 
22 | O=C1OCC(c2ccc(C(F)(F)F)cc2)=C1c1cccc(F)c1 | > 25 µM | > 25 µM |  |  | 
23 | N#Cc1ccc(C2=C(c3ccnc(F)c3)C(=O)OC2)cc1 | 4.4 µM | > 25 µM |  |  | 
24 | CCc1ccc(C2=C(c3cccc(F)c3)C(=O)OC2)cc1 | 9.75 µM | > 25 µM |  |  | 
25 | O=C1OCC(c2ccccc2F)=C1c1ccccc1 | > 25 µM | > 25 µM |  |  | 

Row | Compound | IC50 [1] | IC50 [2] | IC50 [3] | IC50 [4] | Activity [5]
26 | O=C1OCC(c2ccccc2)=C1c1ccc(Oc2ccc(F)cc2)cc1 | > 25 µM | > 25 µM |  |  | 
27 | CS(=O)(=O)c1ccc(C2=C(c3ccccc3)C(=O)OC2)cc1 [ROFECOXIB] |  | 0.06 µM |  |  | 
28 | CN(C)c1ccc(C2=C(c3ccc(F)cc3)COC2=O)cc1 | > 25 µM | > 25 µM |  |  | 
29 | COc1ccc(C2=C(c3ccc(Oc4ccc(F)cc4)cc3)C(=O)OC2)cc1 | > 25 µM | > 25 µM |  |  | 
30 | COc1ccc(C2=C(c3ccc(I)cc3)C(=O)OC2)cc1 | 0.09 µM | > 25 µM | > 5 µM | > 4 µM | > 50%
31 | O=C1OCC(c2ccccc2)=C1c1cccc(F)c1 | > 25 µM | > 25 µM |  |  | 
32 | CSc1ccc(C2=C(c3ccc(F)cc3)C(=O)OC2)cc1 | > 25 µM | > 25 µM |  |  | 
33 | O=C1OCC(c2ccccc2F)=C1c1ccc(Cl)cc1 | > 25 µM | > 25 µM |  |  | 
34 | O=C1OCC(c2ccc(F)cc2)=C1c1ccc(CO)cc1 | > 25 µM | > 25 µM |  |  | 
35 | Cc1ccc(C2=C(c3ccnc(F)c3)C(=O)OC2)cc1 | > 25 µM | > 25 µM |  |  | 
36 | O=C1OCC(c2ccc(F)cc2)=C1c1ccc(Cl)cc1 | > 25 µM | > 25 µM |  |  | 
37 | COc1ccc(C2=C(c3ccccc3F)C(=O)OC2)cc1 | > 25 µM | > 25 µM |  |  | 
38 | COc1ccc(C2=C(c3ccc(F)cc3)C(=O)OC2)cc1 | 0.48 µM | > 25 µM | > 5 µM | 0.36 µM | > 50%
39 | CN(C)c1ccc(C2=C(c3ccccc3F)COC2=O)cc1 | > 25 µM | > 25 µM |  |  | 
40 | COc1ccc(C2=C(c3ccnc(Cl)c3)C(=O)OC2)cc1 | 4.4 µM | > 25 µM |  |  | 
41 | Cc1ccc(C2=C(c3cccc(F)c3)COC2=O)cc1 | > 25 µM | > 25 µM |  |  | 
42 | O=C1OCC(c2ccc(OC(F)(F)F)cc2)=C1c1cccc(F)c1 | > 25 µM | > 25 µM |  |  | 
43 | COc1ccc(C2=C(c3ccccc3)C(=O)OC2)cc1 | > 25 µM | > 25 µM |  |  | 
44 | O=C1OCC(c2ccc(Cl)cc2)=C1c1ccnc(Cl)c1 | > 25 µM | > 25 µM |  |  | 
45 | O=C1OCC(c2ccc(F)cc2)=C1c1ccc(Br)cc1 | > 25 µM | > 25 µM |  |  | 
46 | Cc1ccc(C2=C(c3ccc(Oc4ccc(F)cc4)cc3)C(=O)OC2)cc1 | > 25 µM | > 25 µM |  |  | 
47 | COc1ccc(C2=C(c3ccc(Br)cc3)C(=O)OC2)cc1 | 0.12 µM | 0.45 µM |  |  | 
48 | O=C1OCC(c2cccc(F)c2)=C1c1ccccc1 | > 25 µM | > 25 µM |  |  | 
49 | O=C1OCC(c2ccccc2)=C1c1ccc(F)cc1 | 6 µM | > 25 µM | > 5 µM | 2.8 µM | 
